Values of other authors, collected in US20190282525A1, “TIOPRONIN ORAL COMPOSITION” (CRONUS RESEARCH LABS PRIVATE LIMITED, priority 2018, published 2019).

Settings: 'might be expected'

For CC(S)C(=O)NCC(=O)O (stereo not drawn) [tiopronin, α-mercaptopropionylglycine], the “reduction in urinary cystine” value (tiopronin dosage of 1 g/day) is listed as 250 to 350 mg/day and the “decline in urinary cystine” value (tiopronin dosage of 2 g/day) is listed as “approximately 500 mg/day”.
